In publication PMC7767506, “Synthesis and Characterization of Store-Operated Calcium Entry Inhibitors Active in the Submicromolar Range” (International Journal of Molecular Sciences, 2020):
Where “and” joins values, the source holds several entries; their conditions need not be identical. Equal values may be shown once. Read-outs that look alike come from different tables or passages of the source.

Experiments:
Type in all cases: cell-based, human
[1] = tested on: IL-2 synthesis by Jurkat T cells; assay: IL-2 ELISA in supernatants of Jurkat cells
Protocol: We next studied the effect of increasing [P11] on the neo-synthesized IL-2 concentration in the medium of PHA -stimulated Jurkat cells after 24 h.
Forty-eight-well plates were seeded with 10^6 Jurkat T cells per well. Cells were then incubated for 24 h with or without 10 µg/mL PHA and 0 to 1 µM P11 in complete culture medium. After 24 h, supernatants were collected, and IL-2 amounts were quantified using a Quantikine Human IL-2 Immunoassay (R&D Systems Europe, Lille, France). Optical density (OD) was measured at 450 nm using a Victor3 plate reader (Perkin Elmer, Courtaboeuf, France). The concentration of supernatant IL-2 was determined from the OD curve obtained with the standard. Results were the mean of four repeats. In parallel plates, cell viability was accessed after treatment with trypan blue and counting with a Malassez hematimeter (Sigma-Aldrich, Saint Quentin Fallavier, France).

[2] = tested on: Mn2+ influx through SOCC in Jurkat cells; assay: Mn2+ influx by Indo-1 quenching in Jurkat cells; details: 1 µM
Text: As [Ca^2+]cyt results from a balance between Ca^2+ influx and efflux, this decay was due to the activity of the plasma membrane Ca^2+ ATPases (“PMCA”) and the Na^+/Ca^2+ exchanger (“NCX”) counteracting the SOCE (TG has blocked the SERCA activity, impairing Ca^2+ uptake in the ER). To ensure that compound P11 acted on the SOCE and not on the Ca^2+-efflux mechanisms, we next performed a Mn^2+-quenching experiment with Indo-1. Mn^2+ ions enter the cells through SOCC but cannot be pumped outside the cells by PMCA and NCX; once in the cells, Mn^2+ bound to Indo-1 and quenched its fluorescence measured at 430 nm. Thus, an increase of the Mn^2+ influx amplitude was associated with an increase of the Indo-1 quenching speed, and reversely.
After a 10 min TG treatment to open the SOCC, 100 µM MnCl2 was added. Mn^2+ induced a quenching rate of −0.89 ± 0.05% Fo/s (n = 3, Figure 3A). […]
To study directly the divalent ion influx through the SOCC with selected 2-APB analogs, we performed Mn^2+ quenching experiments. Mn^2+ ions bind to Indo-1 and quench the 430 nm emission wavelength fluorescence after excitation at 360 nm. The decrease of fluorescence is directly dependent on Mn^2+ entry through SOCC. […] After 60 s a 2-APB analog was added as indicated and the change in the curve slope was measured.

[3] = tested on: Jurkat cell SOCE; assay: Thapsigargin-induced SOCE in Jurkat cells, Indo-1 [Ca2+]cyt measurement; details: Jurkat cells; for Ki: 1 µM thapsigargin 10 min, compound added 30 s prior to 1 mM CaCl2
Protocol: To visualize SOCE, we performed a classical protocol: Jurkat cells in Ca^2+-free HBS medium are stimulated by 1 µM thapsigargin (TG, black arrow, Figure 2A) during 600 s to allow the release of Ca^2+ ions by the ER, and the subsequent opening of the store-operated Ca^2+ channels (SOCC). Addition of 1 mM CaCl2 allowed for a massive entry of Ca^2+ ions through SOCC leading thus to an increase of the cytosolic calcium concentration ([Ca^2+]cyt). To test 2-APB and its analogues, different concentrations of compounds were added 30 s prior to Ca^2+ addition.
[Ca^2+]cyt was recorded by a fluorimetric ratio technique as previously described. Leukocytes were spun and resuspended at a density of 10^6 cells/mL in Hepes buffered saline (HBS; 135 mM NaCl, 5.9 mM KCl, 1.2 mM MgCl2, 11.6 mM Hepes, 11.5 mM glucose adjusted to pH 7.3 with NaOH). Due to the presence of 0.002% Ca^2+ in the NaCl, this HBS medium contained 0.1 mM of Ca^2+. Then, cells were incubated in the dark with 4 μM Indo-1-AM for one hour at room temperature under slow agitation. Cells were then centrifuged and resuspended in HBS medium before measurement. To perform the experiments, 0.5 to 1 × 10^6 cells were suspended in 2 mL HBS in a quartz cuvette and inserted into a spectrofluorophotometer (RF-1501 Shimadzu Corporation, Kyoto, Japan) connected to a PC computer (Dell Computer Corp., Montpellier, France). A temperature of 37°C was maintained by circulating water from a bath. Ultraviolet light of 360 nm was used for excitation of Indo-1, and emissions at 405 and 480 nm were recorded. Background and autofluorescence of the cell suspension were subtracted from the recordings. The maximum Indo-1 fluorescence (Rmax) was obtained by adding 1 µM ionomycin to the cell suspension in the presence of 10 mM extracellular CaCl2. Minimum fluorescence was determined following the depletion of external Ca^2+ with 5 mM EGTA.
To visualize the SOCE, cells were placed into the quartz cuvette and 0.5 EGTA was added just before the beginning of the recordings. To induce the SOCE, the cells were treated with 1 μM thapsigargin (TG) during 10 min in Ca^2+-free HBS to induce Ca^2+ release from the ER and the opening of SOCE channels. Then, 1 mM CaCl2 was added to measure the change in [Ca^2+]cyt subsequently to Ca^2+ influx. In the dose-response experiments, different concentrations of 2-APB and its analogs were added 30 s prior to Ca^2+ readdition.

## 2-(dibiphenyl-4-ylboryloxy)ethanamine [P11]
[1]; 1 µM, no PHA
  IL-2 synthesis by compound alone: not able to induce IL-2 synthesis
[1]; 10 µg/mL PHA + 1 µM P11, 24 h
  IL-2 concentration in medium: 26 ± 6 pg/mL
[1]; 10 µg/mL PHA + 1 µM P11, 24 h, vs PHA alone
  change of IL-2 synthesis: −74%
[1]; PHA + P11 (highest concentration), 24 h
  IL-2 corrected for the number of living cells: 39.2 ± 8.6 pg/mL
[1]; PHA + P11 vs PHA alone
  decrease of IL-2 synthesis capacity of living cells: ≈ 63%
[2]
  blockade of Mn2+ quenching rate: ≈ 90%
[2]; added 30 s prior to 100 µM MnCl2
  Indo-1 quenching rate by Mn2+: -0.09 ± 0.01 % Fo/s
[3]
  concentration of complete/full SOCE inhibition: below 1 µM
[3]; read-out: Ki (nM), inhibition constant on SOCE
  Ki: ~75 nM and 75 nM
[3]; read-out: Ki (µM), inhibition constant on SOCE
  Ki: < 1000 nM
[3]; Figure 2B
  concentration at which SOCE is totally blocked: > 100 nM
